# Earlier results, collected in US20150272891A1, “DOSAGE FORMS COMPRISING APIXABAN AND MATRIX FORMER” (RATIOPHARM GMBH, priority 2012, published 2015).
# Conditions: compared with N-1 form
compound,measurement,value
"COc1ccc(-n2nc(C(N)=O)c3c2C(=O)N(c2ccc(N4CCCCC4=O)cc2)CC3)cc1 [H2-2 form, 1-(4-methoxyphenyl)-7-oxo-6-[4-(2-oxopiperidin-1-yl)phenyl]-4,5,6,7-tetrahydro-1H-pyrazolo[3,4-c]pyridine-3-carbamide]",stability of polymorphous form,"less stable than the granular, non-solvate N-1 form"
